Assay results: patent US20220401514A1, “ANTIMICROBIAL, BACTERIOPHAGE-DERIVED POLYPEPTIDES AND THEIR USE AGAINST GRAM-NEGATIVE AND ACID-FAST BACTERIA” (CONTRAFECT CORPORATION, priority 2019, published 2022)

Assays:
[1] = test system: Acinetobacter baumannii isolates; assay: MIC against CDC Acinetobacter baumannii panel (n = 41); format: cell-based
[2] = test system: isolates identified as having novel antibiotic resistance; assay: MIC against CDC novel antibiotic resistance panel (n = 11); format: cell-based
Protocol: (§1) MIC values were determined using the methodology described above, i.e., the standard broth microdilution reference method defined by CLSI.
(§2) See wwwn.cdc.gov/ARIsolateBank/Panel/PanelDetail?ID=10.

[3] = test system: A. baumannii strain BAA-747 persister cells; assay: Activity against persister cells, A. baumannii; format: cell-based, Acinetobacter baumannii
[4] = test system: outer membrane of Gram-negative bacteria (including P. aeruginosa, E. cloacae, K. pneumoniae, E. coli, and A. baumannii); assay: Outer membrane permeabilization, NPN uptake; format: cell-based
Excerpt: NPN is largely excluded by intact Gram-negative bacteria, but enhanced uptake of NPN may occur in cells having a damaged or permeable outer membrane. NPN fluoresces strongly under hydrophobic conditions and weakly under aqueous conditions. Therefore, NPN's interaction with membrane phospholipids in the bacterial envelope increases its fluorescence signal and can be used as an indication of a compromised bacterial membrane and a measurement of the outer membrane permeability.

[5] = test system: Gram-negative with varying susceptibility to imipenem and relebactam; assay: MIC against CDC Imipenem/Relebactam panel (n = 28); format: cell-based
Protocol: as §1, §2

[6] = test system: carbapenamase-producing Enterobacteriaceae isolates; assay: MIC against CDC Carbapenamase Enterobacteriaceae panel (n = 53); format: cell-based
Excerpt: Additionally, a third panel of 53 carbapenamase-producing Enterobacteriaceae isolates were selected to represent a diversity of species and carbapenemases. See wwwn.cdc.gov/ARIsolateBank/Panel/PanelDetail?ID=8.

[7] = novel antibiotic resistance panel
[8] = Carbapenamase Enterobacteriaceae panel

What does the source list for “MRLKMARRRYRLPRRRSRRLFSRTALRMHPRNRLRRIMRGGIRF [Chp2]”?
MIC50 ([1]; Actinobacter baumannii panel): 0.5 µg/mL; MIC90 ([1]; Actinobacter baumannii panel): 1 µg/mL; MIC ([1]; CDC Antibiotic-Resistant Bank No. 0273): 1 µg/mL; MIC ([1]; CDC Antibiotic-Resistant Bank No. 0274): 0.5 µg/mL; MIC ([1]; CDC Antibiotic-Resistant Bank No. 0275): 0.5 µg/mL; MIC ([1]; CDC Antibiotic-Resistant Bank No. 0276): 0.5 µg/mL; MIC ([1]; CDC Antibiotic-Resistant Bank No. 0277): 0.5 µg/mL; MIC ([1]; CDC Antibiotic-Resistant Bank No. 0278): 1 µg/mL; MIC ([1]; CDC Antibiotic-Resistant Bank No. 0279): 1 µg/mL; MIC ([1]; CDC Antibiotic-Resistant Bank No. 0280): 1 µg/mL; MIC ([1]; CDC Antibiotic-Resistant Bank No. 0281): 1 µg/mL; MIC ([1]; CDC Antibiotic-Resistant Bank No. 0282): 0.5 µg/mL; MIC ([1]; CDC Antibiotic-Resistant Bank No. 0283): 1 µg/mL; MIC ([1]; CDC Antibiotic-Resistant Bank No. 0284): 0.5 µg/mL; MIC ([1]; CDC Antibiotic-Resistant Bank No. 0285): 0.5 µg/mL; MIC ([1]; CDC Antibiotic-Resistant Bank No. 0286): 1 µg/mL; MIC ([1]; CDC Antibiotic-Resistant Bank No. 0287): 0.5 µg/mL; MIC ([1]; CDC Antibiotic-Resistant Bank No. 0288): 0.25 µg/mL; MIC ([1]; CDC Antibiotic-Resistant Bank No. 0289): 0.5 µg/mL; MIC ([1]; CDC Antibiotic-Resistant Bank No. 0290): 0.5 µg/mL; MIC ([1]; CDC Antibiotic-Resistant Bank No. 0291): 0.5 µg/mL; MIC ([1]; CDC Antibiotic-Resistant Bank No. 0292): 0.5 µg/mL; MIC ([1]; CDC Antibiotic-Resistant Bank No. 0293): 0.5 µg/mL; MIC ([1]; CDC Antibiotic-Resistant Bank No. 0294): 0.5 µg/mL; MIC ([1]; CDC Antibiotic-Resistant Bank No. 0295): 1 µg/mL; MIC ([1]; CDC Antibiotic-Resistant Bank No. 0296): 0.5 µg/mL; MIC ([1]; CDC Antibiotic-Resistant Bank No. 0297): 1 µg/mL; MIC ([1]; CDC Antibiotic-Resistant Bank No. 0298): 0.5 µg/mL; MIC ([1]; CDC Antibiotic-Resistant Bank No. 0299): 1 µg/mL; MIC ([1]; CDC Antibiotic-Resistant Bank No. 0300): 2 µg/mL; MIC ([1]; CDC Antibiotic-Resistant Bank No. 0301): 1 µg/mL; MIC ([1]; CDC Antibiotic-Resistant Bank No. 0302): 1 µg/mL; MIC ([1]; CDC Antibiotic-Resistant Bank No. 0303): 1 µg/mL; MIC ([1]; CDC Antibiotic-Resistant Bank No. 0304): 0.5 µg/mL; MIC ([1]; CDC Antibiotic-Resistant Bank No. 0305): 0.5 µg/mL; MIC ([1]; CDC Antibiotic-Resistant Bank No. 0306): 0.5 µg/mL; MIC ([1]; CDC Antibiotic-Resistant Bank No. 0307): 1 µg/mL; MIC ([1]; CDC Antibiotic-Resistant Bank No. 0308): 1 µg/mL; MIC ([1]; CDC Antibiotic-Resistant Bank No. 0309): 1 µg/mL; MIC ([1]; CDC Antibiotic-Resistant Bank No. 0310): 0.5 µg/mL; MIC ([1]; CDC Antibiotic-Resistant Bank No. 0311): 0.5 µg/mL; MIC ([1]; CDC Antibiotic-Resistant Bank No. 0312): 0.5 µg/mL; MIC ([1]; CDC Antibiotic-Resistant Bank No. 0313): 0.5 µg/mL; MIC ([2]; Bank No. 0346, Escherichia coli): 0.25 µg/mL; MIC ([2]; Bank No. 0347, Klebsiella pneumoniae): 0.5 µg/mL; MIC ([2]; Bank No. 0348, Escherichia coli): 0.5 µg/mL; MIC ([2]; Bank No. 0349, Escherichia coli): 1 µg/mL; MIC ([2]; Bank No. 0350, Escherichia coli): 1 µg/mL; MIC ([2]; Bank No. 0493, Escherichia coli): 0.5 µg/mL; MIC ([2]; Bank No. 0494, Escherichia coli): 1 µg/mL; MIC ([2]; Bank No. 0495, Escherichia coli): 1 µg/mL; MIC ([2]; Bank No. 0497, Klebsiella pneumoniae): 0.5 µg/mL; MIC ([2]; Bank No. 0538, Escherichia coli): 1 µg/mL; MIC ([2]; Bank No. 0637, Citrobacter freundi): 1 µg/mL; MIC50 [2, 7]: 0.5 µg/mL; MIC90 [2, 7]: 1 µg/mL; MIC Log10 (CFU/mL) Run #1 ([3]; A. baumannii BAA-747 persister cells, 1 hour at 37° C., Run #1, limit of detection 1.6-log10 CFU/mL): 1.5 Log10 (CFU/mL); MIC Log10 (CFU/mL) Run #2 ([3]; A. baumannii BAA-747 persister cells, 1 hour at 37° C., Run #2, limit of detection 1.6-log10 CFU/mL): 2.2 Log10 (CFU/mL); MIC Log10 (CFU/mL) Run #3 ([3]; A. baumannii BAA-747 persister cells, 1 hour at 37° C., Run #3, limit of detection 1.6-log10 CFU/mL): 1.5 Log10 (CFU/mL); MIC Log10 (CFU/mL) Average ([3]; A. baumannii BAA-747 persister cells, average of 3 runs): 1.8 Log10 (CFU/mL); Delta Log ([3]; A. baumannii BAA-747 persister cells, log10 CFU/mL reduction as compared to buffer): 3.1; log10 CFU/mL reduction as compared to buffer ([3]; A. baumannii persister cells, 1 hour at 37° C.): 3.1 log10 CFU/mL; outer membrane permeability (NPN uptake) [4]: dose-dependent increase in outer membrane permeability, equivalent to that of colistin, LL37, and melittin; MIC ([5]; Bank No. 0501, Enterobacter cloacae): 0.5 µg/mL; MIC ([5]; Bank No. 0502, Enterobacter cloacae): 0.5 µg/mL; MIC ([5]; Bank No. 0504, Klebsiella pneumoniae): 0.5 µg/mL; MIC ([5]; Bank No. 0505, Klebsiella pneumoniae): 1 µg/mL; MIC ([5]; Bank No. 0506, Klebsiella pneumoniae): 1 µg/mL; MIC ([5]; Bank No. 0507, Klebsiella pneumoniae): 0.5 µg/mL; MIC ([5]; Bank No. 0508, Pseudomonas aeruginosa): 1 µg/mL; MIC ([5]; Bank No. 0509, Pseudomonas aeruginosa): 1 µg/mL; MIC ([5]; Bank No. 0510, Pseudomonas aeruginosa): 0.5 µg/mL; MIC ([5]; Bank No. 0511, Pseudomonas aeruginosa): 0.5 µg/mL; MIC ([5]; Bank No. 0512, Pseudomonas aeruginosa): 1 µg/mL; MIC ([5]; Bank No. 0513, Pseudomonas aeruginosa): 0.5 µg/mL; MIC ([5]; Bank No. 0514, Pseudomonas aeruginosa): 1 µg/mL; MIC ([5]; Bank No. 0515, Pseudomonas aeruginosa): 0.5 µg/mL; MIC ([5]; Bank No. 0516, Pseudomonas aeruginosa): 0.5 µg/mL; MIC ([5]; Bank No. 0517, Serratia marcescens): > 8 µg/mL; MIC ([5]; Bank No. 0518, Pseudomonas aeruginosa): 1 µg/mL; MIC ([5]; Bank No. 0519, Morganella morganii): ng; MIC ([5]; Bank No. 0520, Serratia marcescens): > 8 µg/mL; MIC ([5]; Bank No. 0521, Serratia marcescens): > 8 µg/mL; MIC ([5]; Bank No. 0522, Klebsiella pneumoniae): 0.5 µg/mL; MIC ([5]; Bank No. 0523, Klebsiella pneumoniae): 0.5 µg/mL; MIC ([5]; Bank No. 0524, Klebsiella pneumoniae): 1 µg/mL; MIC ([5]; Bank No. 0525, Klebsiella pneumoniae): 1 µg/mL; MIC ([5]; Bank No. 0526, Pseudomonas aeruginosa): 2 µg/mL; MIC ([5]; Bank No. 0527, Pseudomonas aeruginosa): 1 µg/mL; MIC ([5]; Bank No. 0528, Pseudomonas aeruginosa): 1 µg/mL; MIC ([5]; Bank No. 0529, Pseudomonas aeruginosa): 0.5 µg/mL; MIC50 ([5]; Imipenem/Relebactam panel): 0.5 µg/mL; MIC90 ([5]; Imipenem/Relebactam panel): 1 µg/mL; MIC ([6]; Bank No. 0112, Klebsiella pneumoniae): 1 µg/mL; MIC ([6]; Bank No. 0113, Klebsiella pneumoniae): 1 µg/mL; MIC ([6]; Bank No. 0114, Escherichia coli): 0.5 µg/mL; MIC ([6]; Bank No. 0115, Klebsiella pneumoniae): 1 µg/mL; MIC ([6]; Bank No. 0116, Citrobacter freundii): 0.5 µg/mL; MIC ([6]; Bank No. 0117, Klebsiella pneumoniae): 0.5 µg/mL; MIC ([6]; Bank No. 0118, Escherichia coli): 0.5 µg/mL; MIC ([6]; Bank No. 0119, Escherichia coli): 0.5 µg/mL; MIC ([6]; Bank No. 0120, Klebsiella pneumoniae): 0.25 µg/mL; MIC ([6]; Bank No. 0121, Serratia marcescens): > 8 µg/mL; MIC ([6]; Bank No. 0122, Serratia marcescens): > 8 µg/mL; MIC ([6]; Bank No. 0123, Serratia marcescens): > 8 µg/mL; MIC ([6]; Bank No. 0124, Serratia marcescens): > 8 µg/mL; MIC ([6]; Bank No. 0125, Klebsiella pneumoniae): 1 µg/mL; MIC ([6]; Bank No. 0126, Klebsiella pneumoniae): 1 µg/mL; MIC ([6]; Bank No. 0127, Salmonella Senftenberg): 0.5 µg/mL; MIC ([6]; Bank No. 0128, Escherichia coli): 0.5 µg/mL; MIC ([6]; Bank No. 0129, Klebsiella pneumoniae): 1 µg/mL; MIC ([6]; Bank No. 0130, Serratia marcescens): > 8 µg/mL; MIC ([6]; Bank No. 0131, Serratia marcescens): > 8 µg/mL; MIC ([6]; Bank No. 0132, Enterobacter cloacae group): 1 µg/mL; MIC ([6]; Bank No. 0134, Raoultella ornithinolytica): 1 µg/mL; MIC ([6]; Bank No. 0135, Klebsiella pneumoniae): 0.5 µg/mL; MIC ([6]; Bank No. 0136, Enterobacter cloacae): 0.5 µg/mL; MIC ([6]; Bank No. 0137, Escherichia coli): 0.25 µg/mL; MIC ([6]; Bank No. 0138, Klebsiella pneumoniae): 0.5 µg/mL; MIC ([6]; Bank No. 0139, Klebsiella pneumoniae): 1 µg/mL; MIC ([6]; Bank No. 0140, Klebsiella pneumoniae): 0.5 µg/mL; MIC ([6]; Bank No. 0141, Klebsiella pneumoniae): 0.5 µg/mL; MIC ([6]; Bank No. 0142, Klebsiella pneumoniae): 0.5 µg/mL; MIC ([6]; Bank No. 0143, Klebsiella pneumoniae): 0.5 µg/mL; MIC ([6]; Bank No. 0144, Kluyvera ascorbata): 0.25 µg/mL; MIC ([6]; Bank No. 0145, Klebsiella pneumoniae): 1 µg/mL; MIC ([6]; Bank No. 0146, Klebsiella pneumoniae): 1 µg/mL; MIC ([6]; Bank No. 0147, Klebsiella oxytoca): 1 µg/mL; MIC ([6]; Bank No. 0148, Klebsiella pneumoniae): 1 µg/mL; MIC ([6]; Bank No. 0149, Escherichia coli): 0.5 µg/mL; MIC ([6]; Bank No. 0150, Escherichia coli): 0.25 µg/mL; MIC ([6]; Bank No. 0151, Escherichia coli): 0.25 µg/mL; MIC ([6]; Bank No. 0152, Klebsiella pneumoniae): 1 µg/mL; MIC ([6]; Bank No. 0153, Klebsiella pneumoniae): 0.5 µg/mL; MIC ([6]; Bank No. 0154, Enterobacter cloacae): 0.25 µg/mL; MIC ([6]; Bank No. 0155, Proteus mirabilis): 0.25 µg/mL; MIC ([6]; Bank No. 0156, Proteus mirabilis): 0.5 µg/mL; MIC ([6]; Bank No. 0157, Citrobacter freundii): 0.5 µg/mL; MIC ([6]; Bank No. 0158, Klebsiella pneumoniae): 0.5 µg/mL; MIC ([6]; Bank No. 0159, Proteus mirabilis): 0.25 µg/mL; MIC ([6]; Bank No. 0160, Klebsiella pneumoniae): 1 µg/mL; MIC ([6]; Bank No. 0161, Enterbacter aerogenes): 2 µg/mL; MIC ([6]; Bank No. 0162, Escherichia coli): 0.25 µg/mL; MIC ([6]; Bank No. 0163, Enterobacter cloacae): 0.25 µg/mL; MIC ([6]; Bank No. 0164, Enterobacter cloacae complex): 1 µg/mL; MIC50 [6, 8]: 0.5 µg/mL; MIC90 [6, 8]: 1 µg/mL
